Measured values reported in patent publication USRE35281E, “Tetrazole derivatives and aldose reductase inhibition therewith” (Wakamoto Pharmaceutical Co., Ltd., priority 1989, dated 1996).

Key:
[1] = Acute toxicity test, oral (Experiment 3); details: mouse, in vivo, suspended in 0.5% sodium carboxymethyl cellulose, male MCH mice, 14 days observation
From the text: The compound listed in Table 7 and suspended in 0.5% sodium carboxymethyl cellulose was orally administered to male MCH mice (6 weeks old: 5 animals per test group).
During the test, the mice were able to take food and water freely.

aldose reductase [2] = target: T1, aldose reductase (Rattus norvegicus, UniProt P07943); experiment: Aldose Reductase Inhibition Test (Experiment 1); assay type: biochemical, rat (male SD rat crystalline lens); details: DL-glycerine aldehyde 10 mM, pH 6.2, 30° C., 5 min; for inhibition at 50 µM: final concentration 5×10^-5 M (values without asterisk); for inhibition at 1 µM: *Concentration of 10^-6 M
T1 construct: their crystalline lenses were immediately removed and stored at -80° C; The lenses were homogenized; from tissue; host or cells: crystalline lens of six-week-old male SD rats (homogenate supernatant, dialysed)
Description: (§1) Six-week-old male SD rats were killed under ether anesthesia and their crystalline lenses were immediately removed and stored at -80° C. The lenses were homogenized in 3 volumes of 135 mM sodium potassium phosphate buffer (pH: 7.0) and centrifuged at a rate of 30,000 rpm for 30 min. The supernatant was dialyzed overnight against 0.05M sodium chloride, to produce an aldose reductase solution. All operations were conducted at 4° C. The enzyme solution was stored at -80° C.
(§2) The activity of aldose reductase was determined according to a slight modification of the method of J. H. Kinoshita et al [J. Biol. Chem., 240, 877 (1965)]. Namely, 0.1 ml of DL-glycerine aldehyde (final concentration: 10 mM) was added to 0.9 ml of 100 mM sodium potassium phosphate buffer (pH 6.2) which contained lithium sulfate (final concentration: 400 mM), reduced nicotinamide adenine dinucleotide phosphate (final concentration: 0.15 mM), the enzyme solution, and the compound to be tested (final concentration: 5×10^-5 M or 10^-6 M), and then the reaction was conducted at 30° C. for 5 min. […] The maximum reducing rate of the absorbance (U) during the reaction was determined. By substracting, from this value, the maximum reducing rate (Uo) at 340 nm of the reaction solution before the addition of the substrate (DL-glycerine aldehyde), the reaction rate (V) (V=U-Uo) was calculated as a true reaction rate in the presence of the compound to be tested.
(§3) The same procedure was repeated except for the absence of the compound to be tested. A true reaction rate (Vo) in case the enzyme was not inhibited was calculated (Vo =U'-Uo '). The inhibitory activity of aldose reductase was determined by the following formula. [formula]

aldose reductase [3] = target: T1, aldose reductase; experiment: Aldose reductase inhibition, IC50 determination (Experiment 2); assay type: biochemical, rat (male SD rat crystalline lens); details: calculated from inhibitions at three final concentrations; DL-glycerine aldehyde 10 mM, pH 6.2, 30° C.
Description: as §1, with “The lenses were homogenized in 3 volumes of 135 mM sodium potassium phosphate buffer (pH: 7.0) and centrifuged at a rate of 30,000 rpm for 30 min.” left out
as §2, with “Namely,” for “The activity of aldose reductase was determined according to a slight modification of the method of J. H. Kinoshita et al [J. Biol. Chem., 240, 877 (1965)]. Namely,”
as §3
In the same manner as Experiment 1, the inhibitions at final concentrations of 10^-6, 10^-7 and […] for the compound to be tested were calculated.

Row | Compound | LD50 at 336 h [1] | inhibition at 50 µM (aldose reductase [2]) | inhibition at 1 µM (aldose reductase [2]) | IC50 (aldose reductase [3])
1 | COC(=O)Cn1nnnc1-c1ccc(C)cc1 [Compound 1-7, Methyl 5-(4-methylphenyl)-1-tetrazoleacetate] | > 3000 mg/kg | 59% |  | 
2 | O=C(O)Cn1nnnc1-c1ccccc1 [Compound 3-1, 5-Phenyl-1-tetrazoleacetic acid] | > 3000 mg/kg |  | 97% | 32 nM
3 | Cc1ccc(-c2nnnn2CC(=O)O)cc1 [Compound 3-6, 5-(4-Methylphenyl)-1-tetrazoleacetic acid] | > 3000 mg/kg |  | 98% | 25 nM
4 | O=C(O)Cn1nnnc1-c1cccc(NC(=O)C(=O)O)c1 [Compound 3-12, 3'-(1-Carboxymethyl-tetrazol-5-yl)oxanilic acid] | > 3000 mg/kg | 97% |  | 31 nM
